From patent US20070274916A1, “Method for Identifying Compounds that Affect Expression of Tryptophan Hydroxylase Isoform 2” (priority 2003, published 2007)
“Also recorded” adds a separate entry of the source.

Assays:
[1] = system: TPH2 mRNA; experiment: TPH2 mRNA levels in murine raphe slice preparation of ovariectomized female mice by real-time RT-PCR; assay type: in vivo, mouse
Text: Female mice (13 to 16 wks of age) were ovariectomized (C57BL/6s from Charles River; ER Knockout animals from Taconic). Animals were fed a soy-free rodent chow and allowed a minimum of one week to recuperate from surgery and shipping. […] Approximately six hours following the fourth dose, mice were deeply anesthetized with ketamine/xylazine and brains were removed from the skull, placed ventral side up in a mouse brain block on ice, and ice-cold razor blades were inserted into the block at 1 mm intervals. The caudal extent of the hypothalamus was used as an anatomical marker for the placement of the first razor blade, and 4 blades were placed in sequential slots, caudally. The four sections were examined and the two that encompassed the greatest extent of the dorsal raphe were placed in a tube containing […] (Ambion, Austin, Tex.) and placed at 4° C. overnight. Brain slices were removed from […] after 24 hours and stored at −80° C. in fresh tubes.
Two TPH2 primer and probe sets were generated for use in detecting TPH2 by real-time RT-PCR. Murine TPH2 forward primers were mTPH2-514F and mTPH2-1270F, their corresponding sequences are 5′-[…]-3′ (SEQ ID NO:7; corresponding to nucleotides 514 to 535 of the nucleotide sequence encoding TPH2) and 5′-[…]-3′ (SEQ ID NO:8; corresponding to nucleotides 1270 to 1290 of the nucleotide sequence encoding TPH2), respectively. The murine TPH2 reverse primers were mTPH2-585R and mTPH2-1344R, their corresponding sequences are 5′-[…]-3′ (SEQ ID NO:9; corresponding to nucleotides 567 to 585 of the nucleotide sequence encoding TPH2) and 5′-[…]-3′ (SEQ ID NO:10; corresponding to nucleotides 1324 to 1344 of the nucleotide sequence encoding TPH2), respectively. The murine TPH2 probes were mTPH2-565T and mTPH2-1292T, their corresponding sequences are: 5′-[…]-3′ (SEQ ID NO:11; corresponding to nucleotides 539 to 565 of the nucleotide sequence encoding TPH2) and 5′-[…]-3′ (SEQ ID NO:12; corresponding to nucleotides 1292 to 1317 of the nucleotide sequence encoding TPH2), respectively. The probes were labeled at the 5′ end with FAM and the 3′ end with TAMRA.
Isolation of total RNA from mouse raphe slices for real-time PCR analysis using the TAQMAN ABI PRISMS 7700 Detection System, Applied Biosystems, Foster City, Calif. was as follows. Samples were stored in […] at 4° C. overnight followed by removal of […] and storage at −80° C. until isolation of the total RNA (2 slices weigh 25 to 50 mg). Slices were removed from −80° C. and placed in 1.0 mL TRIZOL Reagent in FASTPREP processing tubes. Slices were homogenized with one pass at setting 6 for 30 seconds in FASTPREP 120 homogenizer using LYSING MATRIX D tubes with bead matrix followed by 20 seconds at setting 6 after all samples had been processed. Samples were set at room temperature for 5 minutes to allow for complete dissociation of nucleoprotein complexes followed by centrifugation of the samples at 12,000×g for 5 minutes at 4° C. Homogenates were transferred to 1.5 mL; microcentrifuge tubes and 100 μL BCP (Bromo-3-chloropropane) was added. Samples were vortexed for 15 seconds and set at room temperature for 2 to 3 minutes. Samples were centrifuged at 12,000×g for 15 minutes at 4° C. The aqueous layer was removed and placed in a new RNAse-free sterile 1.5 mL microcentrifuge tube. Five μL of 5 mg/μL glycogen was added to each sample and the samples were vortexed. Five hundred μL of isopropanol was added to each sample. The samples were vortexed for 15 seconds, set at room temperature 10 minutes, followed by centrifugation at 12,000×g for 15 minutes at 4° C. Supernatants were decanted and pellets washed with 500 μL ice cold 75% ethanol.

[2] = system: TPH2 mRNA; experiment: TPH2 mRNA levels in raphe slice preparations from intact male mice by real-time RT-PCR; assay type: in vivo, mouse
Experimental: Ovariectomized C57/BL6 female mice (13 to 16 wks of age) were from Charles River Laboratories and intact C57/BL6 male mice (13 to 16 wks of age) were from Taconic Laboratories. Animals were fed a soy-free rodent chow and allowed a minimum of one week to recuperate from surgery and shipping. Mice were dosed subcutaneously in the morning (once daily for 4 days) with 0.1 cc of vehicle (sesame oil) or compound (dose is indicated for each experiment). Approximately six hours following the fourth dose, mice were deeply anesthetized with ketamine/xylazine.
For real-time RT-PCR analyses brains were removed from the skull, placed ventral side up in a mouse brain block on ice, and ice-cold razor blades are inserted into the block at 1 mm intervals. The caudal extent of the hypothalamus was used as an anatomical marker for the placement of the first razor blade, and 4 blades are placed in sequential slots, caudally. The four sections are examined and the two that encompass the greatest extent of the dorsal raphe are placed in a tube containing RNA-later and placed at 4° C. overnight. Brain slices were removed from RNALATER (Ambion) after 24 hr and stored at −80° C. in fresh tubes. An n of seven animals was used per treatment group for real-time RT-PCR studies. For in situ hybridization histochemistry brains are removed from the skull and placed ventral side up on powdered dry ice and frozen brains are stored at −80° C. until sectioning. An n of 5 to 6 animals was used per treatment group for in situ hybridization histochemistry analyses.
The murine TPH2 primers were mTPH2-514F and mTPH2-585R and the murine TPH2 probe was mTPH2-565T. mTPH2-565T was labeled with the fluorescent dye FAM and the quencher TAMRA.
Isolation of total RNA from murine raphe slices for TAQMAN analysis has been described in Example 2. Genomic DNA was removed from the total RNA samples using the DNA-FREE kit (Ambion) and cDNA synthesis performed using Multiscribe RT and the TaqMan Gold RT reagents (ABI). Reverse transcription was halted by the addition of EDTA. Samples were transferred to a storage plate and stored at −20° C.
Real-time PCR analyses using TAQMAN was as follows. A 2.5 μL of cDNA was added to each well of a 96well plate with 22.5 μl of TaqMan® reaction mix (1× Universal Master Mix (ABI), 20 nM forward and reverse 18S rRNA control primers, and 100 nM 18S rRNA control probe (ABI) and 300 nM mTPH2-514F and mTPH2-585R primers, 200 nM mTPH2-565T probe. Samples were run on an ABI PRISM 7700 Sequence Detection Instrument (Applied Biosystems (ABI), Foster City, Calif.) and collected data was analyzed using Merck Biometrics TAQMAN Plus program and statistical significance determined using a one-way ANOVA (CMG, Merck Biometrics).

C[C@]12CC[C@@H]3c4ccc(O)cc4CC[C@H]3[C@@H]1CC[C@@H]2O [17β-estradiol]
effect on expression of TPH2 mRNA in raphe slice ([1]; 0.025 to 0.2 mpk s.c. once daily for four days, FIG. 4C): no apparent effect | effect on TPH2 mRNA levels ([2]; dose not stated): no effect

C[C@@H]1C[C@H]2[C@@H]3CCC4=CC(=O)C=C[C@]4(C)[C@@]3(F)[C@@H](O)C[C@]2(C)[C@@]1(O)C(=O)CO [dexamethasone]
reduction in TPH2 mRNA levels ([1]; 0.1 mg/kg s.c. once daily for four days, FIG. 14): 23% | reduction in TPH2 message levels ([1]; 1 mg/kg once daily for four days, FIG. 14): 30% | reduction in TPH2 mRNA levels ([1]; 3 mg/kg s.c. once daily for four days, FIG. 14): 44% | reduction in TPH2 mRNA levels ([1]; dexamethasone 3 mg/kg once daily for four days, FIG. 9): 40% | reduction in TPH2 mRNA levels ([2]; 1 mpk once daily for four days, FIG. 15): 26%

CC#C[C@]1(O)CC[C@H]2[C@@H]3CCC4=CC(=O)CCC4=C3[C@@H](c3ccc(N(C)C)cc3)C[C@@]21C [mifepristone]
effect on TPH2 mRNA expression compared to vehicle ([1]; RU486 10 mpk once daily, TPH2-514 or TPH2-1270 primer/probe set, FIG. 7, 10 mg/kg): decrease; also recorded: significant reduction | effect on TPH2 mRNA expression ([1]; RU486 20 mpk once daily, TPH2-514 primer/probe set, FIG. 8, 20 mg/kg): further reduction; also recorded: significant reduction | glucocorticoid agonist/antagonist character shown by TPH2 mRNA expression ([1]; alone and mixed with dexamethasone, Example 2): mixed or partial agonist | effect on the dexamethasone reduction of TPH2 mRNA levels ([1]; co-administered with 3 mg/kg dexamethasone, ovariectomized female mice, FIG. 9, 3 mg/kg): blocked; also recorded: antagonizes | reduction in TPH2 mRNA levels ([1]; mifepristone alone, 20 mg/kg, FIG. 9): 28% | effect on the dexamethasone reduction of TPH2 mRNA levels ([2]; co-administered with 1 mg/kg dexamethasone, FIG. 15, 1 mg/kg): blocked; also recorded: antagonizes | effect on TPH2 message levels ([2]; mifepristone alone, 30 mg/kg): no effect
